Test results as given in ChEMBL document CHEMBL6177985, “Discovery of Novel Cyclic Peptides as SMAD2-SMAD4 Interaction Inhibitors for the Treatment of Hepatic Fibrosis” (J Med Chem, 2025).
Calls of active or inactive are those of the source. No cut-off for these calls is given here.

Legend:
[1] = system: LX-2; assay: Antifibrotic activity against TGF-beta1 stimulated human LX-2 cells assessed as reduction in alpha-SMA expression at 100 uM incubated for 24 hrs by Western blotting analysis; format: functional, cell-based
[2] = system: LX-2; assay: Antifibrotic activity against TGF-beta1 stimulated human LX-2 cells assessed as reduction in COL1A1 expression at 100 uM incubated for 24 hrs by Western blotting analysis; format: functional, cell-based
[3] = species: Homo sapiens; assay: Inhibition of TGF-beta induced his tagged human SMAD2/human SMAD4 interaction at 100 uM incubated for 1 hr followed by anti-His-HRP addition and measured after 1 hr by blocking assay relative to control; conditions: time 2.0 hrs
[4] = system: Mus musculus; assay: Anti-fibrotic activity against CCl4-induced liver fibrosis male C57BL/6J mouse model assessed as effect on SMAD1/5/8 phosphorylation in liver at 400 microg/kg, ip measured for 3 weeks by Western blot analysis; format: functional, organism-based; conditions: dose 400.0 µg/kg
[5] = system: LX-2; assay: Inhibition of TGF-beta induced SMAD3 phosphorylation level in human LX-2 cells at 100 uM by Western blot analysis; format: functional, cell-based
[6] = system: Mus musculus; assay: Anti-fibrotic activity against CCl4-induced liver fibrosis male C57BL/6J mouse model assessed as effect on SMAD3 phosphorylation in liver at 400 microg/kg, ip measured for 3 weeks by Western blot analysis; format: functional, organism-based; conditions: dose 400.0 µg/kg
[7] = system: LX-2; assay: Inhibition of TGF-beta induced SMAD1/5/8 phosphorylation level in human LX-2 cells at 100 uM by Western blot analysis; format: functional, cell-based
[8] = system: LX-2; assay: Downregulation of TGF-beta induced P65 phosphorylation level in human LX-2 cells at 100 uM by Immunoblot analysis; format: functional, cell-based
[9] = system: LX-2; assay: Downregulation of TGF-beta induced SMAD2 phosphorylation level in human LX-2 cells at 100 uM by Immunoblot analysis; format: functional, cell-based
[10] = system: LX-2; assay: Downregulation of TGF-beta induced COL1A1 level in human LX-2 cells at 100 uM by Immunoblot analysis; format: functional, cell-based
[11] = Stability in rat serum measured up to 48 hrs by LC-MS/MS analysis; format: ADME, cell-free
[12] = system: LX-2; assay: Downregulation of TGF-beta induced alpha-SMA level in human LX-2 cells at 100 uM by Immunoblot analysis; format: functional, cell-based

Row | Compound | Activity [1] | Activity [2] | inhibition [3] | further results
1 | H-TRPASFWETA-OH | inactive | inactive | 14.5% | 
2 | H-TRPANFWETS-OH | inactive | inactive | 42.6% | 
3 | H-TRAASFWETS-OH | inactive | inactive | 16.3% | 
4 | C[C@H](NC(=O)[C@@H]1CCCN1C(=O)[C@H](CCCNC(=N)N)NC(=O)[C@@H](N)[C@@H](C)O)C(=O)N[C@@H](CO)C(=O)N[C@@H](Cc1ccccc1)C(=O)N[C@@H](Cc1c[nH]c2ccccc12)C(=O)N[C@@H](CCC(=O)O)C(=O)N[C@H](C(=O)N[C@@H](CO)C(=O)O)[C@@H](C)O | Active | Active | 52.5% | Activity [4]: inactive; inhibition [5]: inactive; Activity [6]: inactive; inhibition [7]: inactive
5 | H-TRPASFWEAS-OH | inactive | inactive | 9.3% | 
6 | H-TAPASFWETS-OH | inactive | inactive | 8.6% | 
7 | H-TRPASFWATS-OH | inactive | inactive | 11.2% | 
8 | H-TRPAQFWETS-OH | inactive | inactive | 31.9% | 
9 | C[C@@H]1NC(=O)[C@@H]2CCCN2C(=O)[C@H](CCCNC(=N)N)NC(=O)[C@H]([C@@H](C)O)NC(=O)[C@H](CO)NC(=O)[C@H]([C@@H](C)O)NC(=O)[C@H](CCC(=O)O)NC(=O)[C@H](Cc2c[nH]c3ccccc23)NC(=O)[C@H](Cc2ccccc2)NC(=O)[C@@H](CO)NC1=O | Active | Active | 27.9% | 
10 | H-TRPASAWETS-OH | Active | Active | 52.7% | 
11 | H-TRPASRWETS-OH | inactive | inactive | 27.1% | 
12 | H-TRPASWWETS-OH | inactive | inactive | 43.8% | 
13 | H-TRPAFFWETS-OH | inactive | inactive | 34.7% | 
14 | H-TRPARFWETS-OH | inactive | inactive | 17.4% | 
15 | Ac-TRPASFWETS-OH | inactive | inactive | 51.9% | 
16 | H-TRPASFWETS-NH2 | inactive | inactive | 49.8% | 

Row | Compound | Activity [1] | Activity [2] | inhibition [3] | further results
17 | H-TRPAAFWETS-OH | Active | Active | 46.2% | 
18 | H-TRPAKFWETS-OH | inactive | inactive | 32.5% | 
19 | H-TRPADFWETS-OH | inactive | inactive | 6.1% | 
20 | C[C@H](NC(=O)[C@@H]1CCCN1C(=O)[C@H](CCCNC(=N)N)NC(=O)[C@@H](N)[C@@H](C)O)C(=O)N[C@@H](CO)C(=O)N[C@H](Cc1ccccc1)C(=O)N[C@@H](Cc1c[nH]c2ccccc12)C(=O)N[C@@H](CCC(=O)O)C(=O)N[C@H](C(=O)N[C@@H](CO)C(=O)O)[C@@H](C)O | Active | Active | 71.3% | Activity [8]: Active; Activity [9]: Active; Activity [10]: Active; Stability [11]: Stable; Activity [12]: Active
21 | H-TRPASNWETS-OH | inactive | inactive | 31.3% | 
22 | C[C@@H]1NC(=O)[C@@H]2CCCN2C(=O)[C@H](CCCNC(=N)N)NC(=O)[C@H]([C@@H](C)O)NC(=O)[C@H](CO)NC(=O)[C@H]([C@@H](C)O)NC(=O)[C@H](CCC(=O)O)NC(=O)[C@H](Cc2c[nH]c3ccccc23)NC(=O)[C@H](Cc2ccccc2)NC(=O)[C@H](CO)NC1=O | Active; Compound Showed Marginal Reduction Compared To M10 | Active; Compound Showed Marginal Reduction Compared To M10 | 42.7% | 
23 | H-TRPASFAETS-OH | inactive | inactive | 6.5% | 
24 | C[C@H](NC(=O)[C@@H]1CCCN1C(=O)[C@H](CCCNC(=N)N)NC(=O)[C@@H](N)[C@@H](C)O)C(=O)N[C@H](CO)C(=O)N[C@@H](Cc1ccccc1)C(=O)N[C@@H](Cc1c[nH]c2ccccc12)C(=O)N[C@@H](CCC(=O)O)C(=O)N[C@H](C(=O)N[C@@H](CO)C(=O)O)[C@@H](C)O | Active | Active | 60.5% | 
25 | H-TRPASDWETS-OH | inactive | inactive | 23.6% | 
26 | H-TRPAWFWETS-OH | inactive | inactive | 21.3% | 
27 | H-ARPASFWETS-OH | inactive | inactive | 12.5% | 
28 | H-TRPASKWETS-OH | inactive | inactive | 35.2% | 
29 | H-TRPASEWETS-OH | inactive | inactive | 10.9% | 
30 | H-TRPASYWETS-OH | inactive | inactive | 20.7% | 
31 | H-TRPASQWETS-OH | inactive | inactive | 32.4% | 
32 | H-TRPAEFWETS-OH | inactive | inactive | 24.2% | 
